# ChEMBL document CHEMBL4049425, “Fragment-Based, Structure-Enabled Discovery of Novel Pyridones and Pyridone Macrocycles as Potent Bromodomain and Extra-Terminal Domain (BET) Family Bromodomain Inhibitors” (J Med Chem, 2017)
# Experiments:
# MX1 = assay: Antiproliferative activity against human MX1 cells after 72 hrs by Cell Titer Glo assay; type: functional, cell-based; details: MX1, 72 h
# [1] = molecular target: T1, Bromodomain-containing protein 4 (Homo sapiens, UniProt O60885); assay: Inhibition of human N-terminal His6-tagged BRD4 BD1-BD2 (57 to 550 residues) expressed in EScherichia coli BL21(DE3) after 1 hr by Alexa-647-conjugated probe based TR-FRET assay
# [2] = molecular target: T1, Bromodomain-containing protein 4; assay: Inhibition of BRD4 in human NCI-H1299 cells after 24 hrs by Bright-Glo luciferase reporter gene assay; type: cell-based
# [3] = Lipophilicity, log D of the compound; type: physicochemical; details: octanol/water
# Liver [4] = assay: Unbound intrinsic clearance in human liver microsomes; type: ADME, microsome
# Liver [5] = assay: Unbound intrinsic clearance in mouse liver microsomes; type: ADME, microsome
# Liver [6] = assay: Unbound intrinsic clearance in rat liver microsomes; type: ADME, microsome
# [7] = Fraction unbound in mouse plasma at 1 uM after 4 hrs by LC-MS/MS analysis; type: ADME, cell-free
# [8] = Permeability of the compound by PAMPA; type: physicochemical; details: read-out: permeability
# Mus musculus [9] = assay: Unbound clearance in mouse at 1 mg/kg, iv or 1 mg/kg, po; type: ADME, organism-based; details: in vivo
# Mus musculus [10] = assay: Unbound AUC in mouse at 1 mg/kg, po; type: ADME, organism-based; details: in vivo
# Mus musculus [11] = assay: Fraction absorbed in portal vein of mouse at 1 mg/kg, iv or 1 mg/kg, po; type: ADME, organism-based; details: in vivo
# [12] = Oral bioavailability in mouse at 1 mg/kg; type: ADME, organism-based; details: in vivo
SMILES,EC50 (MX1) [µM],Ki [1] [µM],EC50 [2] [µM],logD [3],CL free (Liver [4]) [mL/min/kg],CL free (Liver [5]) [mL/min/kg],CL free (Liver [6]) [mL/min/kg],"fraction unbound at 4 h, 1 µM [7]",Papp [8] [×10⁻⁶ cm/s],CL free (Mus musculus [9]) [mL/min/kg],fAUC (Mus musculus [10]) [ng·h/mL],FaFg (Mus musculus [11]),bioavailability [12] [%]
COc1cc(=O)n(C)nc1-c1cc(NS(C)(=O)=O)ccc1Oc1ccccc1,0.73,0.14,0.23,–,–,–,–,–,–,–,–,–,–
CNc1cc(=O)n(C)nc1-c1ccccc1,–,160,–,–,–,–,–,–,–,–,–,–,–
CCNc1cc(=O)n(C)cc1-c1cc(NS(=O)(=O)CC)ccc1Oc1ccc(F)cc1F,0.03,0.014,0.14,2.8 to 4.3,–,–,–,–,–,–,–,–,–
CCS(=O)(=O)Nc1ccc(Oc2ccc(F)cc2F)c(-c2cn(C)c(=O)cc2OCC(C)C)c1,0.14,0.007,0.18,2.8 to 4.3,–,–,–,–,–,–,–,–,–
CCS(=O)(=O)c1ccc2c(c1)-c1cn(C)c(=O)cc1OCCCc1ccccc1O2,0.0069,0.0073,0.026,2.8 to 4.3,148,900,–,–,–,–,–,–,–
CCOc1cc(=O)n(C)cc1-c1cc(NS(=O)(=O)CC)ccc1Oc1ccccc1,0.0047,0.0044,0.039,–,67,91.7,3000,–,–,–,–,–,–
CCS(=O)(=O)Nc1ccc(Oc2ccc(F)cc2F)c(-c2cn(C)c(=O)cc2OCC(F)(F)F)c1,0.12,0.022,0.1,2.8 to 4.3,–,–,–,–,–,–,–,–,–
CCS(=O)(=O)Nc1cnc2c(c1)-c1cn(C)c(=O)cc1OCCCCc1cc(F)cc(F)c1O2,0.0042,0.0008,0.0064,2.8 to 4.3,< 28.3,250,75,0.12,9,317,15,0.49,27
CCOc1cc(=O)n(C)cc1-c1cc(CS(C)(=O)=O)ccc1Oc1ccc(F)cc1F,0.14,0.12,0.23,2.8 to 4.3,–,–,–,–,–,–,–,–,–
CCOc1cc(=O)n(C)cc1-c1cc(NS(=O)(=O)CC)cnc1Oc1ccc(F)cc1F,0.032,0.0087,0.045,2.8 to 4.3,–,–,–,–,–,–,–,–,–
CCS(=O)(=O)c1ccc2c(c1)-c1cn(C)c(=O)cc1OCCCCc1ccccc1O2,0.01,0.0019,0.0067,2.8 to 4.3,130,867,533,–,–,–,–,–,–
COc1cc(=O)n(C)nc1-c1cc(N)ccc1Oc1ccccc1,7.2,1.7,2.9,–,–,–,–,–,–,–,–,–,–
CCS(=O)(=O)Nc1ccc(Oc2ccc(F)cc2F)c(-c2cn(C)c(=O)cc2OCCN2CCOCC2)c1,> 3,0.23,2.2,2.8 to 4.3,–,–,–,–,–,–,–,–,–
CCOc1cc(=O)n(C)cc1-c1cc(NS(=O)(=O)CC)ccc1Oc1cccnc1,0.05,0.017,0.15,–,< 31.7,< 53.3,< 53.3,–,–,–,–,–,–
COc1cc(=O)n(C)cc1-c1ccccc1Oc1ccccc1,1.5,0.45,2.8,–,–,–,–,–,–,–,–,–,–
CCS(=O)(=O)c1ccc2c(c1)-c1cn(C)c(=O)cc1OCCCCc1cc(Cl)ccc1O2,0.013,0.002,0.016,2.8 to 4.3,167,883,700,0.04,7.6,167,41,0.44,41

SMILES,EC50 (MX1) [µM],Ki [1] [µM],EC50 [2] [µM],logD [3],CL free (Liver [4]) [mL/min/kg],CL free (Liver [5]) [mL/min/kg],CL free (Liver [6]) [mL/min/kg],"fraction unbound at 4 h, 1 µM [7]",Papp [8] [×10⁻⁶ cm/s],CL free (Mus musculus [9]) [mL/min/kg],fAUC (Mus musculus [10]) [ng·h/mL],FaFg (Mus musculus [11]),bioavailability [12] [%]
CCOc1cc(=O)n(C)cc1-c1cc(NS(=O)(=O)CC)ccc1OC1CCC(F)(F)CC1,0.25,0.11,0.39,–,35,167,183,–,–,–,–,–,–
CCS(=O)(=O)Nc1ccc(Oc2ccc(F)cc2F)c(-c2cn(C)c(=O)cc2OCC(C)(C)O)c1,0.71,0.071,1.1,2.8 to 4.3,–,–,–,–,–,–,–,–,–
CCOc1cc(=O)n(C)cc1-c1cc(NS(=O)(=O)CC)ccc1Oc1ccc(C#N)cc1,0.053,0.016,0.055,–,< 26.7,< 76.7,< 43.3,–,–,–,–,–,–
CCNC(=O)Nc1ccc(Oc2ccccc2)c(-c2nn(C)c(=O)cc2OC)c1,13,1.9,2.8,–,–,–,–,–,–,–,–,–,–
COc1cc(=O)n(C)cc1-c1cc(NS(C)(=O)=O)ccc1Oc1ccccc1,0.13,0.058,0.077,–,–,–,–,–,–,–,–,–,–
CCOc1cc(=O)n(C)cc1-c1cc(NS(=O)(=O)CC)ccc1Oc1ccc(OC(F)(F)F)cc1,0.062,0.0055,0.21,–,95,1500,3000,–,–,–,–,–,–
COC(=O)C[C@@H]1N=C(c2ccc(Cl)cc2)c2c(sc(C)c2C)-n2c(C)nnc21,–,0.0167,–,–,–,–,–,–,–,–,–,–,–
CCOc1cc(=O)n(C)cc1-c1cc(NS(=O)(=O)CC)ccc1Oc1ccc(Cl)cc1,0.018,0.0026,0.027,–,< 50,< 148,88.3,–,–,–,–,–,–
CCOc1cc(=O)n(C)cc1-c1cc(NS(=O)(=O)CC)ccc1Oc1ccc(F)cc1,0.016,0.0056,0.069,–,< 33,< 98.3,167,–,–,–,–,–,–
CCS(=O)(=O)c1ccc2c(c1)-c1cn(C)c(=O)cc1OCCc1ccccc1O2,0.71,0.1,0.63,2.8 to 4.3,100,333,167,–,–,–,–,–,–
CCOC(=O)Nc1ccc(Oc2ccccc2)c(-c2nn(C)c(=O)cc2OC)c1,4.5,1.1,4.9,–,–,–,–,–,–,–,–,–,–
CCS(=O)(=O)Nc1ccc2c(c1)-c1cn(C)c(=O)cc1OCCCCCc1cc(Cl)ccc1O2,0.016,0.0028,0.035,4.3,517,4670,1830,–,0.89,–,–,–,–
COc1cc(=O)n(C)nc1-c1cc(NC(C)=O)ccc1Oc1ccccc1,1.3,0.9,0.37,–,–,–,–,–,–,–,–,–,–
CCS(=O)(=O)Nc1ccc2c(c1)-c1cn(C)c(=O)cc1OCCCCc1cc(F)cc(F)c1O2,–,–,–,2.8 to 4.3,67,700,317,0.03,6.8,–,8,–,–
Cn1cc2c(cc1=O)OCCCCc1cc(Cl)ccc1Oc1ccc(CS(C)(=O)=O)cc1-2,0.019,0.0038,0.018,2.8 to 4.3,267,1670,317,0.03,9.2,400,29,0.79,68
CCS(=O)(=O)Nc1ccc(Oc2ccccc2)c(-c2cn(C)c(=O)cc2OC)c1,0.016,0.0082,0.067,–,–,–,–,–,–,–,–,–,–
